Source: patent publication US20110130425A1, “Use of H3 Histaminergic Agonists for the Treatment of Addiction to Drugs of Abuse” (priority 2009, published 2011)

Tests used:
[1] = system: reinforcement produced by cocaine; assay: Reinforcement phase: cocaine self-administration dose/response; format: in vivo, rat; conditions: L-histidine 500 mg/kg single dose one hour before reinforcement; even at 0.03 mg/kg cocaine; rats
alcohol seeking behavior = assay: Relapse into seeking alcohol self-administration (reinstatement by alcohol or foot-shock stress); format: in vivo, Sprague-Dawley rat; conditions: L-histidine 1 g/kg orally, rats
Protocol: Fourteen male Sprague-Dawley rats obtained from Charles-River weighing 200 g at the beginning of the protocol are used. Rats are water-deprived for the few hours before the first overnight session. Rats are placed in an operant chamber (Panlab) with two levers. Pressing the “active” lever provides access to 0.1 ml of a 20% sucrose solution under a continuous reinforcement program. A light above the active lever signals availability of the solution in a drinking chamber for 20 seconds.
The following daily sessions take 60 minutes and water is provided ad libitum. […] Afterwards, the program is increased to Fixed Ratio 2 (FR2), i.e., two lever presses give access to one reinforcement. Self-administration is maintained next to FR3 and finally to FR5.
Before extinction sessions, saline is administered orally (5 ml/kg) to all rats. For extinction training, rats are placed in the same operant chambers but no alcohol access or cue light is contingent on lever press. Once rats decrease lever press to less than 10 presses per hour they are considered ready for reinstatement (relapse) procedures.
Before the reinstatement sessions, saline 5 ml/kg or L-histidine 1 g/kg (dissolved in saline and adjusted to pH 5) are administered orally to the rats. […]

[2] = system: nicotine seeking behavior; assay: Extinction and reinstatement of nicotine seeking, mouse intravenous operant self-administration; format: in vivo, C57B16/J mice; conditions: L-histidine 1 g/kg or 2 g/kg; mice
Protocol: L-Histidine solution: L-Histidine (Sigma, H-8000) at a 155.15 g/mol concentration in 0.34 M phosphoric acid is prepared as follows. 1.5 g L-histidine are dissolved in 12 ml of 0.34 M phosphoric acid to obtain a 0.8 M solution of L-histidine at approximately pH 6. pH is verified and 0.1 g of NaCl added to a final concentration of 0.9%. Finally, the L-histidine solution is sterilized by filtration.
Animals: Male C57B16/J mice (Charles River, France) are housed individually in controlled laboratory conditions with the temperature maintained at 21±1° C., humidity at 55±10%, and light reversal cycle (light on at 20.00 h, light off at 08.00 h). Mice are tested during the dark phase of a light reversal cycle. Behavioural tests and animal care are conducted in accordance with the standard ethical guidelines (National Institutes of Health 1995; European Communities Directive 86/609 EEC) and the protocols are approved by the local ethical committee (CEEA-PRBB).
Apparatus: The self-administration experiments are conducted in mouse operant chambers (Model ENV-307A-CT, Medical Associates, Georgia, VT, USA). The experimental chambers are equipped with a house light, ventilator fan, drug infusion pump, liquid swivel with counterbalanced arm, and two manipulanda with cue lights that are located on either side of a food dipper. The manipulanda are holes (1.2 cm diameter). […]
The catheter is flushed daily with a saline solution containing heparin (30 UI/mL) in order to maintain its patency. The patency of intravenous catheters is evaluated periodically (approximately every 6 days) and whenever drug self-administration behavior appears to deviate dramatically from that observed previously. Patency is evaluated by the infusion of 0.1 ml of thiobarbital (5 mg/ml) through the catheter. […]
L-Histidine dosage: The first L-histidine dose is 1 g/kg. […] Dosage for other H3 histaminergic agonists or H3 histaminergic agonist precursors is determined considering the pharmacokinetic and toxicological characteristics of the compound. […]

N[C@@H](Cc1c[nH]cn1)C(=O)O [L-histidine]
tendency to seek cocaine (self-injections in 2 hours) [1]: diminished the tendency to seek cocaine
reinstatement of alcohol seeking behavior caused by stress (alcohol seeking behavior; foot-shock stress): decreases the reinstatement
reinstatement of alcohol seeking behavior caused by exposure to ethanol (alcohol seeking behavior): decreases the reinstatement
cue-induced reinstatement of nicotine seeking [2]: decreases cue-induced reinstatement
number of sessions required to achieve the extinction criteria (nicotine) [2]: shortens the number of sessions
responding during the first extinction session (nicotine) [2]: decreases or delays responding
